Results as given in the NIST ThermoML archive (doi:10.1021/je0601208).

Key:
[1] = xn = mol fraction of the nth substance listed
[2] = refractive index (Na D-line) (dimensionless); xn = mol fraction of the nth substance listed; details: 100.5 kPa, Liquid, Standard Abbe refractometry

CCOC(=O)Cc1ccccc1 [ethyl phenylacetate] + CCO
Details	refractive index, 288.15 K	refractive index, 298.15 K	refractive index, 308.15 K	refractive index, 318.15 K	surface tension liquid-gas, 288.15 K [mN/m]	surface tension liquid-gas, 298.15 K [mN/m]	surface tension liquid-gas, 308.15 K [mN/m]	surface tension liquid-gas, 318.15 K [mN/m]
[1], x1 = 0.05	–	–	–	–	23.9	23.1	22.2	21.2
[1], x1 = 0.1	–	–	–	–	24.6	23.7	22.8	21.8
[1], x1 = 0.15	–	–	–	–	25.2	24.3	23.4	22.4
[1], x1 = 0.2	–	–	–	–	25.9	24.9	23.9	22.9
[1], x1 = 0.25	–	–	–	–	26.5	25.5	24.5	23.5
[1], x1 = 0.3	–	–	–	–	27.2	26.1	25.1	24.1
[1], x1 = 0.35	–	–	–	–	27.8	26.7	25.7	24.7
[1], x1 = 0.4	–	–	–	–	28.4	27.3	26.2	25.4
[1], x1 = 0.45	–	–	–	–	29.1	27.9	26.8	26
[1], x1 = 0.5	–	–	–	–	29.7	28.5	27.4	26.6
[1], x1 = 0.55	–	–	–	–	30.3	29.1	28	27.2
[1], x1 = 0.6	–	–	–	–	31	29.7	28.6	27.8
[1], x1 = 0.65	–	–	–	–	31.6	30.3	29.2	28.4
[1], x1 = 0.7	–	–	–	–	32.2	30.9	29.8	29
[1], x1 = 0.75	–	–	–	–	32.8	31.6	30.4	29.5
[1], x1 = 0.8	–	–	–	–	33.5	32.1	31	30.1
[1], x1 = 0.85	–	–	–	–	34.1	32.8	31.6	30.7
[1], x1 = 0.9	–	–	–	–	34.7	33.4	32.2	31.4
[1], x1 = 0.95	–	–	–	–	35.3	33.9	32.8	32
[1], x1 = 1	–	–	–	–	35.9	34.6	33.5	32.8
[2], x1 = 0.05	1.38109	1.37693	1.37265	1.36852	–	–	–	–
[2], x1 = 0.1	1.39604	1.3918	1.38745	1.38323	–	–	–	–
[2], x1 = 0.15	1.4087	1.40441	1.40003	1.39573	–	–	–	–
[2], x1 = 0.2	1.41969	1.41536	1.41093	1.40653	–	–	–	–
[2], x1 = 0.25	1.42932	1.42491	1.42047	1.41597	–	–	–	–
[2], x1 = 0.3	1.4379	1.43347	1.42899	1.42447	–	–	–	–
[2], x1 = 0.35	1.44556	1.44111	1.43661	1.43203	–	–	–	–
[2], x1 = 0.4	1.45242	1.44792	1.44342	1.43878	–	–	–	–
[2], x1 = 0.45	1.45856	1.45402	1.44951	1.44484	–	–	–	–
[2], x1 = 0.5	1.46406	1.45953	1.455	1.4503	–	–	–	–
[2], x1 = 0.55	1.46909	1.46454	1.45999	1.45524	–	–	–	–
[2], x1 = 0.6	1.47365	1.46908	1.46451	1.45975	–	–	–	–
[2], x1 = 0.65	1.47785	1.47324	1.46869	1.46391	–	–	–	–
[2], x1 = 0.7	1.48174	1.47713	1.47255	1.46775	–	–	–	–
[2], x1 = 0.75	1.48536	1.48072	1.47613	1.47132	–	–	–	–
[2], x1 = 0.8	1.48865	1.48403	1.47943	1.47458	–	–	–	–
[2], x1 = 0.85	1.4917	1.48707	1.48248	1.47763	–	–	–	–
[2], x1 = 0.9	1.49461	1.48996	1.48539	1.48053	–	–	–	–
[2], x1 = 0.95	1.4973	1.49266	1.4881	1.48323	–	–	–	–
[2], x1 = 1	1.49971	1.49513	1.49063	1.48583	–	–	–	–
